According to ChEMBL document CHEMBL2439969, “Replacement of Thr32 and Gln34 in the C-terminal neuropeptide Y fragment 25-36 by cis-cyclobutane and cis-cyclopentane β-amino acids shifts selectivity toward the Y(4) receptor” (J Med Chem, 2013):
Residues, ends and D or L forms follow the SMILES beside them.

How the values were obtained:
[1] = target: T1, Neuropeptide Y receptor type 5 (Homo sapiens, UniProt Q15761); assay: Displacement of Cy5-pNPY from human Y5 receptor expressed in human HEC-1B cells after 90 to 120 mins by flow cytometry; type: cell-based
T1 sequence (Q15761 whole entry): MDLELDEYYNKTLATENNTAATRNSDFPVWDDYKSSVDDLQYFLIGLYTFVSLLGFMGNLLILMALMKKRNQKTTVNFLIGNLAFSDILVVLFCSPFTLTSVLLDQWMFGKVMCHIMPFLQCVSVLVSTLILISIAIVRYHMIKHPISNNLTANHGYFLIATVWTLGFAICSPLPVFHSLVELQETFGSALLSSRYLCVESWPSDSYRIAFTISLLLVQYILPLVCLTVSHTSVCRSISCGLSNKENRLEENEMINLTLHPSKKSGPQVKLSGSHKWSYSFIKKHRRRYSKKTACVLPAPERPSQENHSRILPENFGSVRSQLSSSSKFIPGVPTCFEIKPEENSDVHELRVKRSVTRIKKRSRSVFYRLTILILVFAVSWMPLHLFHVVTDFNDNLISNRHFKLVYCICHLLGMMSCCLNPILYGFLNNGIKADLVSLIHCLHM

[2] = target: T2, Neuropeptide Y receptor type 2 (Homo sapiens, UniProt P49146); assay: Displacement of Cy5-pNPY from human Y2 receptor expressed in CHO cells after 90 to 120 mins by flow cytometry; type: cell-based
T2 sequence (P49146 whole entry): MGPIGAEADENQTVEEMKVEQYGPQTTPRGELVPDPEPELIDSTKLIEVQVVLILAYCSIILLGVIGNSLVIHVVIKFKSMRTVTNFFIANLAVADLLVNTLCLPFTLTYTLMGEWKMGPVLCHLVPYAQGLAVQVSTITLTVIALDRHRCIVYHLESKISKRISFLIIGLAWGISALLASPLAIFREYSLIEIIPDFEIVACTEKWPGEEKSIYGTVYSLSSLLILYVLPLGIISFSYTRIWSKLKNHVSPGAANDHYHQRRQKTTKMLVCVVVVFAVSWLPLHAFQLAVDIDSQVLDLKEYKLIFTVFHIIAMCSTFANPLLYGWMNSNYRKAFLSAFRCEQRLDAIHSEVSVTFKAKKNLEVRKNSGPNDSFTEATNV

[3] = target: T3, Neuropeptide Y receptor type 1 (Homo sapiens, UniProt P25929); assay: Displacement of Cy5-pNPY from human Y1 receptor expressed in HEL cells after 90 to 120 mins by flow cytometry; type: cell-based
T3 sequence (P25929 whole entry): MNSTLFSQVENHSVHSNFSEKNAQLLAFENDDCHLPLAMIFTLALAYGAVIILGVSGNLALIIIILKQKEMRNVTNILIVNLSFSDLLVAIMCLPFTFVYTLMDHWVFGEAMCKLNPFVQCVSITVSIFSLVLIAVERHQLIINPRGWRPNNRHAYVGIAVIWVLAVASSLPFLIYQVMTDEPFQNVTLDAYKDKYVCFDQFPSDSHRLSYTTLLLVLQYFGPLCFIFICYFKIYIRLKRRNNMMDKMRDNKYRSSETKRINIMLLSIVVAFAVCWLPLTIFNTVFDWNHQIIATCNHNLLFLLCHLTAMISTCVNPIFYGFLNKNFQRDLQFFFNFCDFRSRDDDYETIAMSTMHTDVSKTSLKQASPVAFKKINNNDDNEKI

[4] = target: T4, Neuropeptide Y receptor type 4 (Homo sapiens, UniProt P50391); assay: Displacement of Cy5-[K4]hPP from human Y4 receptor expressed in CHO cells after 90 to 120 mins by flow cytometry; type: cell-based
[5] = target: T4, Neuropeptide Y receptor type 4; assay: Partial agonist activity at human Y4 receptor expressed in sf9 cells assessed as hydrolysis of [gamma-33P]GTP after 2 mins by scintillation counting analysis relative to hPP
[6] = target: T4, Neuropeptide Y receptor type 4; assay: Agonist activity at human Y4 receptor expressed in sf9 cells assessed as hydrolysis of [gamma-33P]GTP after 2 mins by scintillation counting analysis

T4 sequence (P50391 whole entry): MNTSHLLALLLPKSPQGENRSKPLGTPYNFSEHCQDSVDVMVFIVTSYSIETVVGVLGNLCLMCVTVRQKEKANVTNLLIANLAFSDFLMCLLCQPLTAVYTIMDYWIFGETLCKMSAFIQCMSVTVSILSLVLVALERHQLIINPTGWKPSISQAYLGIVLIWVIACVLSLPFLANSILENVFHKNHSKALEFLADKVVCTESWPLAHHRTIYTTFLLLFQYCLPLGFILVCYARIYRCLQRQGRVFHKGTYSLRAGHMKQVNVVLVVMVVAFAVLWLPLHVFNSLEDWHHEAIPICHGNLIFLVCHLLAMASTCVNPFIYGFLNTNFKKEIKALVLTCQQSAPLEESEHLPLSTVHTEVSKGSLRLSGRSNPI

## CC[C@H](C)[C@H](NC(=O)[C@H](Cc1ccc(O)cc1)NC(=O)[C@H](Cc1cnc[nH]1)NC(=O)[C@H](CCCNC(=N)N)NC(C)=O)C(=O)N[C@@H](CC(N)=O)C(=O)N[C@@H](CC(C)C)C(=O)N[C@H](C(=O)N[C@H](C(=O)N[C@@H](CCCNC(=N)N)C(=O)N[C@H]1C[C@@H](C(=O)N[C@@H](CCCNC(=N)N)C(=O)N[C@@H](Cc2ccc(O)cc2)C(N)=O)C1(C)C)[C@@H](C)O)[C@@H](C)CC (HELM PEPTIDE1{[ac].R.H.Y.I.N.L.I.T.R.[CC1(C)[C@@H](N[*:1])C[C@H]1C(=O)[*:2]].R.Y.[am]}$$$$V2.0)
[1]
  Ki: > 1000 nM
[2]
  Ki: > 1000 nM
[3]
  Ki: > 1000 nM
[4]
  Ki: > 1000 nM

## CC[C@H](C)[C@H](NC(=O)[C@H](Cc1ccc(O)cc1)NC(=O)[C@H](Cc1cnc[nH]1)NC(=O)[C@H](CCCNC(=N)N)NC(C)=O)C(=O)N[C@@H](CC(N)=O)C(=O)N[C@@H](CC(C)C)C(=O)N[C@H](C(=O)N[C@H](C(=O)N[C@@H](CCCNC(=N)N)C(=O)N[C@H]1CCC[C@H]1C(=O)N[C@@H](CCCNC(=N)N)C(=O)N[C@@H](Cc1ccc(O)cc1)C(N)=O)[C@@H](C)O)[C@@H](C)CC (HELM PEPTIDE1{[ac].R.H.Y.I.N.L.I.T.R.[O=C([C@@H]1CCC[C@@H]1N[*:1])[*:2]].R.Y.[am]}$$$$V2.0)
[5]
  Emax: 71%

## CC[C@H](C)[C@H](NC(=O)[C@H](Cc1ccc(O)cc1)NC(=O)[C@H](Cc1cnc[nH]1)NC(=O)[C@H](CCCNC(=N)N)NC(C)=O)C(=O)N[C@@H](CC(N)=O)C(=O)N[C@@H](CC(C)C)C(=O)N[C@H](C(=O)N[C@H](C(=O)N[C@@H](CCCNC(=N)N)C(=O)N[C@H]1CC[C@H]1C(=O)N[C@@H](CCCNC(=N)N)C(=O)N[C@@H](Cc1ccc(O)cc1)C(N)=O)[C@@H](C)O)[C@@H](C)CC (HELM PEPTIDE1{[ac].R.H.Y.I.N.L.I.T.R.[O=C([C@@H]1CC[C@@H]1N[*:1])[*:2]].R.Y.[am]}$$$$V2.0)
[1]
  Ki: > 1000 nM
[2]
  Ki: > 1000 nM
[3]
  Ki: > 1000 nM
[6]
  EC50: 122 nM
[4]
  Ki: 72 nM

## CC[C@H](C)[C@H](NC(=O)[C@H](Cc1ccc(O)cc1)NC(=O)[C@H](Cc1cnc[nH]1)NC(=O)[C@H](CCCN=C(N)N)NC(C)=O)C(=O)N[C@@H](CC(N)=O)C(=O)N[C@@H](CC(C)C)C(=O)N[C@H](C(=O)N[C@@H]1C[C@H](C(=O)N[C@@H](CCCN=C(N)N)C(=O)N[C@@H]2C[C@H](C(=O)N[C@@H](CCCNC(=N)N)C(=O)N[C@@H](Cc3ccc(O)cc3)C(N)=O)C2(C)C)C1(C)C)[C@@H](C)CC (HELM PEPTIDE1{[ac].R.H.Y.I.N.L.I.[CC1(C)[C@@H](C(=O)[*:2])C[C@H]1N[*:1]].R.[CC1(C)[C@@H](C(=O)[*:2])C[C@H]1N[*:1]].R.Y.[am]}$$$$V2.0)
[1]
  Ki: > 1000 nM
[2]
  Ki: > 1000 nM
[3]
  Ki: > 1000 nM
[6]
  EC50: 11 nM
[4]
  Ki: 0.53 nM

## CC[C@H](C)[C@H](NC(=O)[C@H](Cc1ccc(O)cc1)NC(=O)[C@H](Cc1cnc[nH]1)NC(=O)[C@H](CCCN=C(N)N)NC(C)=O)C(=O)N[C@@H](CC(N)=O)C(=O)N[C@@H](CC(C)C)C(=O)N[C@H](C(=O)N[C@H]1CCC[C@H]1C(=O)N[C@@H](CCCN=C(N)N)C(=O)N[C@H]1CCC[C@H]1C(=O)N[C@@H](CCCN=C(N)N)C(=O)N[C@@H](Cc1ccc(O)cc1)C(N)=O)[C@@H](C)CC (HELM PEPTIDE1{[ac].R.H.Y.I.N.L.I.[O=C([C@@H]1CCC[C@@H]1N[*:1])[*:2]].R.[O=C([C@@H]1CCC[C@@H]1N[*:1])[*:2]].R.Y.[am]}$$$$V2.0)
[1]
  Ki: > 500 nM
[2]
  Ki: > 1000 nM
[3]
  Ki: > 1000 nM
[6]
  EC50: 48 nM
[4]
  Ki: 37 nM

## CC[C@H](C)[C@H](NC(=O)[C@H](Cc1ccc(O)cc1)NC(=O)[C@H](Cc1cnc[nH]1)NC(=O)[C@H](CCCNC(=N)N)NC(C)=O)C(=O)N[C@@H](CC(N)=O)C(=O)N[C@@H](CC(C)C)C(=O)N[C@@H](CCCNC(=N)N)C(=O)N[C@H]1CC[C@H]1C(=O)N[C@@H](CCCNC(=N)N)C(=O)N[C@H]1CC[C@H]1C(=O)N[C@@H](CCCNC(=N)N)C(=O)N[C@@H](Cc1ccc(O)cc1)C(N)=O (HELM PEPTIDE1{[ac].R.H.Y.I.N.L.R.[O=C([C@@H]1CC[C@@H]1N[*:1])[*:2]].R.[O=C([C@@H]1CC[C@@H]1N[*:1])[*:2]].R.Y.[am]}$$$$V2.0)
[1]
  Ki: > 1000 nM
[2]
  Ki: > 1000 nM
[3]
  Ki: > 1000 nM
[6]
  EC50: 66 nM
[4]
  Ki: 35 nM

## CC[C@H](C)[C@H](NC(=O)[C@H](Cc1ccc(O)cc1)NC(=O)[C@H](CCCNC(=N)N)NC(=O)[C@H](CCCNC(=N)N)NC(C)=O)C(=O)N[C@@H](CC(N)=O)C(=O)N[C@@H](CC(N)=O)C(=O)N[C@@H](CC(C)C)C(=O)N[C@H](C(=O)N[C@@H](CCCNC(=N)N)C(=O)N[C@H]1CC[C@H]1C(=O)N[C@@H](CCCNC(=N)N)C(=O)N[C@@H](Cc1ccc(O)cc1)C(N)=O)[C@@H](C)O (HELM PEPTIDE1{[ac].R.R.Y.I.N.N.L.T.R.[O=C([C@@H]1CC[C@@H]1N[*:1])[*:2]].R.Y.[am]}$$$$V2.0)
[1]
  Ki: > 1000 nM
[2]
  Ki: > 1000 nM
[3]
  Ki: > 1000 nM
[6]
  EC50: 76 nM
[4]
  Ki: 70 nM

## CCCC[C@H](NC(=O)[C@H](CC(N)=O)NC(=O)[C@@H](NC(=O)[C@H](Cc1ccc(O)cc1)NC(=O)[C@H](CCCNC(=N)N)NC(=O)[C@H](CCCNC(=N)N)NC(C)=O)[C@@H](C)CC)C(=O)N[C@@H](CC(C)C)C(=O)N[C@H](C(=O)N[C@@H](CCCNC(=N)N)C(=O)N[C@H]1CCC[C@H]1C(=O)N[C@@H](CCCNC(=N)N)C(=O)N[C@@H](Cc1ccc(O)cc1)C(N)=O)[C@@H](C)O (HELM PEPTIDE1{[ac].R.R.Y.I.N.[Nle].L.T.R.[O=C([C@@H]1CCC[C@@H]1N[*:1])[*:2]].R.Y.[am]}$$$$V2.0)
[1]
  Ki: > 500 nM
[2]
  Ki: 217 nM
[3]
  Ki: > 1000 nM
[6]
  EC50: 51 nM
[4]
  Ki: 14 nM

## CCCC[C@H](NC(=O)[C@H](CC(N)=O)NC(=O)[C@@H](NC(=O)[C@H](Cc1ccc(O)cc1)NC(=O)[C@H](CCCNC(=N)N)NC(=O)[C@H](CCCNC(=N)N)NC(C)=O)[C@@H](C)CC)C(=O)N[C@@H](CC(C)C)C(=O)N[C@H](C(=O)N[C@@H](CCCNC(=N)N)C(=O)N[C@H]1CC[C@H]1C(=O)N[C@@H](CCCNC(=N)N)C(=O)N[C@@H](Cc1ccc(O)cc1)C(N)=O)[C@@H](C)O (HELM PEPTIDE1{[ac].R.R.Y.I.N.[Nle].L.T.R.[O=C([C@@H]1CC[C@@H]1N[*:1])[*:2]].R.Y.[am]}$$$$V2.0)
[1]
  Ki: > 1000 nM
[2]
  Ki: 708 nM
[3]
  Ki: > 1000 nM
[6]
  EC50: 284 nM
[4]
  Ki: 93 nM

## CC(=O)N[C@H](C(=O)N[C@@H](CCCNC(=N)N)C(=O)N[C@H]1CCC[C@H]1C(=O)N[C@@H](CCCNC(=N)N)C(=O)N[C@@H](Cc1ccc(O)cc1)C(N)=O)[C@@H](C)O (HELM PEPTIDE1{[ac].T.R.[O=C([C@@H]1CCC[C@@H]1N[*:1])[*:2]].R.Y.[am]}$$$$V2.0)
[1]
  Ki: > 1000 nM
[2]
  Ki: > 1000 nM
[3]
  Ki: > 1000 nM
[6]
  EC50: 451 nM
[4]
  Ki: 509 nM

## CC(=O)N[C@@H](Cc1ccc(O)cc1)C(=O)N[C@@H](CCCNC(=N)N)C(=O)N[C@H]1CCC[C@H]1C(=O)N[C@@H](CCCN=C(N)N)C(=O)N[C@@H](Cc1ccc(O)cc1)C(N)=O (HELM PEPTIDE1{[ac].Y.R.[O=C([C@@H]1CCC[C@@H]1N[*:1])[*:2]].R.Y.[am]}$$$$V2.0)
[1]
  Ki: > 1000 nM
[2]
  Ki: > 1000 nM
[3]
  Ki: > 1000 nM
[6]
  EC50: 94 nM
[4]
  Ki: 105 nM

## Ac-RHYINLITRLRY-NH2
[1]
  Ki: > 1000 nM
[2]
  Ki: > 1000 nM
[3]
  Ki: > 1000 nM
[6]
  EC50: 100 nM
[4]
  Ki: 157 nM

## Ac-TRLRY-NH2
[1]
  Ki: > 1000 nM
[2]
  Ki: > 1000 nM
[3]
  Ki: > 1000 nM
[6]
  EC50: 291 nM
[4]
  Ki: 490 nM

## Ac-YRLRY-NH2
[1]
  Ki: > 1000 nM
[2]
  Ki: > 1000 nM
[3]
  Ki: > 1000 nM
